Measurements: US11786534B2 (TAIHO PHARMACEUTICAL CO., LTD., priority 2019, dated 2023)

Assays:
Type in all cases: biochemical
[1] = target: T1, human EGFR (d746-750/T790M/C797S) (Homo sapiens, UniProt P00533, C797S/DEL746-750/T790M); test: Inhibitory activity against EGFR (d746-750/T790M/C797S) kinase
T1 construct: made in house; host or cells: Sf9 insect cells, baculovirus
Method: 1) Measurement of inhibitory activity against EGFR (d746-750/T790M/C797S) kinase
The compounds of the above examples and comparative examples were measured for their inhibitory activity against EGFR (d746-750/T790M/C797S) kinase activity. Among the materials required for measurement of this inhibitory activity, the kinase protein (SEQ ID NO: 1) used was prepared as follows: the cytoplasmic domain of human EGFR (d746-750/T790M/C797S) fused at the ammo terminal end with a glutathione-S-transferase (GST) tag was expressed M insect cells (Sf9) by the baculovirus expression system and then purified an a glutathione sepharose column. For use as a substrate peptide, a peptide biotinylated at the N-terminal end (biotin -EEPLYWSFPAKKK) was synthesized by reference to Perkin Elmer LabChip® series reagent FL-Peptide 22.
Procedures for measurement of the inhibitory activity are as follows. First, the compounds of the present invention were each dissolved in dimethyl sulfoxide (DMSO), and their serial dilutions were then prepared with DMSO. Secondly, each compound serial dilution (final concentration of DMSO during kinase reaction: 2.5%) or DMSO (final concentration: 2.5%) was mixed with a solution containing the substrate peptide (final concentration: 250 nM), magnesium chloride (final concentration: 10 mM), manganese chloride (final concentration: 10 mM) and ATP (final concentration: 6 μM) in a kinase reaction buffer (Carna Biosciences Inc., Japan), and the EGFR (d746-750/T790M/C797S) protein was further added thereto, followed by incubation at 25° C. for 120 minutes to cause kinase reaction. To the reaction solution, EDTA was added to give a final concentration of 24 mM to thereby stop the reaction, followed by addition of a phospholylated tyrosine detection solution containing europium-labeled anti-phosphorylated tyrosine antibody PT66 (Perkin Elmer) and SureLight APC-SA (Perkin Elmer). The reaction solution was allowed to stand at room temperature for 2 hours or longer. As a background, DMSO was used instead of each compound solution in .DMSO, and EDIA was added prior to the addition of the EGFR EGFR (d746-750/T790M/C797S) protein, followed by incubation at 25° C. for 120 minutes. The same detection solution was also added to this reaction solution, which was then allowed to stand for 2 hours or longer. Finally, all the test samples were measured with a PHERAstar FS reader (BMG LABTECH) for their fluorescence intensity at two wavelengths of 620 nm and 665 nm upon irradiation with an excitation light of 337 nm wavelength, and the ratio of fluorescence intensities at these two wavelengths was obtained as data for each compound.
Moreover, as control compounds, the above Comparative Example A (Example 3 in WO2013/118817) and Comparative Example B (Example 35 in WO2013/118817) known to have EGFR inhibitory activity were used.
In accordance with the same procedures as shown in 1) in Test Example 1, the compounds of the above examples were measured for their inhibitory activity against EGFR (d746-750/T790M/C797S) kinase activity.

[2] = target: T2, human EGFR (d746-750/C797S) (Homo sapiens, UniProt P00533, C797S/DEL746-750); test: Inhibitory activity against EGFR (d746-750/C797S) kinase
T2 construct: purchased SignalChem
T2 sequence (P00533 with tags, fused parts or gaps DEL746-750/C797S): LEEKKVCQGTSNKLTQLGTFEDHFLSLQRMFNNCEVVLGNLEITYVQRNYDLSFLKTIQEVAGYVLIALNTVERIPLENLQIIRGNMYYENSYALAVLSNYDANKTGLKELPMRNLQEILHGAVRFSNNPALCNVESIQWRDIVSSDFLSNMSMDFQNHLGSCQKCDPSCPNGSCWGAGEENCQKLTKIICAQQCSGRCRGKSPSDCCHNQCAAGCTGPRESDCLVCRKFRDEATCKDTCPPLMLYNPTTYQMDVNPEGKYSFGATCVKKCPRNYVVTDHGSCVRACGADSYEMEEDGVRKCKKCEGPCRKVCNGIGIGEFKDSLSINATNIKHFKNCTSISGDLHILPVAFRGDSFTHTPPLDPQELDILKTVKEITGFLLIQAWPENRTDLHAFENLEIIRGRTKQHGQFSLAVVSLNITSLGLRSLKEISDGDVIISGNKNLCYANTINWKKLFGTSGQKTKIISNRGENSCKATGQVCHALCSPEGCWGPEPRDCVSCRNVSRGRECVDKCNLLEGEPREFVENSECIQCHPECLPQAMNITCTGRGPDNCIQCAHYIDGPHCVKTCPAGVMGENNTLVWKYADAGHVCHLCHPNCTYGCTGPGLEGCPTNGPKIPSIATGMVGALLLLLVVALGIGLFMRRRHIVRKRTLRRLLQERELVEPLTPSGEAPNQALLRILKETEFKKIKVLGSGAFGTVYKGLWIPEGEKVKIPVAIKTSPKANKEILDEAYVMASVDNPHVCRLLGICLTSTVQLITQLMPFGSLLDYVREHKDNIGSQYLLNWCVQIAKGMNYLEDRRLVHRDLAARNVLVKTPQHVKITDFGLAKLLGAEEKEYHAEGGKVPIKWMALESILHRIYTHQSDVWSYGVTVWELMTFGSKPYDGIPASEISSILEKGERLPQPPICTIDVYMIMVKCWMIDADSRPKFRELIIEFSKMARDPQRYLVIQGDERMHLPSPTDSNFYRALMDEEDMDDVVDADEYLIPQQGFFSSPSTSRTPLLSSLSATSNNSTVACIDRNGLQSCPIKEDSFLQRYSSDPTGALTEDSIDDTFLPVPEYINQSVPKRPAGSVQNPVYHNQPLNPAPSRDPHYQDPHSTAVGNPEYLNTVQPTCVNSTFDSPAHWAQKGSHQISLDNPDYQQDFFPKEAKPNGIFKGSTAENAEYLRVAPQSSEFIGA
Method: 3) Measurement of inhibitory activity against EGFR (d746-750/C797S) kinase
The compounds of the present invention were measured for their inhibitory activity against EGFR (d746-750/C797S) kinase activity.
The materials, measurement procedures and data analysis method used in this test are substantially the same as those shown in the section “Measurement of inhibitory activity aiainst EGFR (d746-750/T790M/C797S) kinase.” However, among the materials, the kinase protein used was a purified recombinant human EGFR (d746-750/C797S) protein purchased from SignalChem, while the kinase reaction buffer used was 13.5 mM Tris (pH 7.5) containing 2 mM dithiothreitol and 0.009% Tween-20. In the measurement procedures, the final concentration of ATP was set to 14 μM, the final concentration of maganesium chloride was set to 20 mM, the final concentration of manganese chloride was set to 12.5 mM, the incubation time for kinase reaction was set to 60 minutes, and the final concentration of EDTA used to stop the kinase reaction was set to 40 mM. Finally, data analysis was conducted to determine to IC50 value (nM) of each compound against EGFR (d746-750/C797S).
In accordance with the same procedures as shown in 3) in Test Example 1, the compounds of the present invention were measured for their inhibitory activity against EGFR (d746-750/C797S) kinase activity.

[3] = target: T3, human EGFR (WT) (Homo sapiens, UniProt P00533); test: Inhibitory activity against EGFR (WT) kinase
T3 construct: purchased Carna Biosciences Inc., Japan
T3 sequence (P00533 25-1210): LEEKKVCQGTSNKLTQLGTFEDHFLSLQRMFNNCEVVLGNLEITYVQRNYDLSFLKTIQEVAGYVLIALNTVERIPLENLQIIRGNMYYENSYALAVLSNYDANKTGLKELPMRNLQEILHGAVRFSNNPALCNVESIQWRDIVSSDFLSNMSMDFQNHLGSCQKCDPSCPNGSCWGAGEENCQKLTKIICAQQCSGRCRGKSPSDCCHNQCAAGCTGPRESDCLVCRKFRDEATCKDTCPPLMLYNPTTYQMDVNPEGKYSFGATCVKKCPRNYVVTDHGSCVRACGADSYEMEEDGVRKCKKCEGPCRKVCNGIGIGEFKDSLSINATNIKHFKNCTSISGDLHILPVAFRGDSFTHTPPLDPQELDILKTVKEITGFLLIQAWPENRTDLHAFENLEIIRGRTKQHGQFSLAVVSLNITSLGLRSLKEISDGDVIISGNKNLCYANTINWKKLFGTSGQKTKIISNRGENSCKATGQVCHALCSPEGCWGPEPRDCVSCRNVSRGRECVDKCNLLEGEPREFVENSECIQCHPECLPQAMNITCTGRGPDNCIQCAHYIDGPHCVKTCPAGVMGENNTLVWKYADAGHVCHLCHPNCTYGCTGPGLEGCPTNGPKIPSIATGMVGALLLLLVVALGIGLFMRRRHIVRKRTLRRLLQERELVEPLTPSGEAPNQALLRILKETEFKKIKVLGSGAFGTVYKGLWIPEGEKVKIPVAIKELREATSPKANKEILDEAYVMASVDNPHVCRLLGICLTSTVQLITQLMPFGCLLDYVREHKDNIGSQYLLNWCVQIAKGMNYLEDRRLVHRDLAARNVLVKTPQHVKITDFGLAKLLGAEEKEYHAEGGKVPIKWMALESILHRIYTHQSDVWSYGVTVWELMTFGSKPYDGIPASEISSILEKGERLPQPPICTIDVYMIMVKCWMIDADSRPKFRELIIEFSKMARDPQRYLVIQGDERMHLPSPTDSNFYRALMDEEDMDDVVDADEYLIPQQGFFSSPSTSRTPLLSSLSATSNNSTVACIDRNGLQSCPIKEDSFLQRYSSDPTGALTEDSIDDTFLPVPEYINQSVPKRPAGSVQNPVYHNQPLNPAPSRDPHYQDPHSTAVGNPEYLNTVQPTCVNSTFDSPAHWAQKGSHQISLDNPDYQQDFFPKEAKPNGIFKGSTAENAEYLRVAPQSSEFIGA
Method: The compounds of the present invention were measured for their inhibitory activity nainst EGFR (WT) kinase activity.
The materials, measurement procedures and data analysis method used in this test. are substantially the same as those shown in the section “Measurement of inhibitory activity against EGFR (d746-750/T790M/C797S) kinase.” However, among the materials, the kinase protein used was a purified recombinant human EGFR (WT) purchased from Carna Biosciences Inc., Japan. In the measurement procedures, the final concentration of ATP was set to 1.5 μM. Finally, data analysis was conducted to determine the IC50 value (nM) of each compound against EGFR (WT).
In accordance with the same procedures as shown in 5) in Test Example 1, the compounds of the present invention were measured for their inhibitory activity against. EGFR (WT) kinase activity.

[4] = target: T4, human EGFR (L858R/C797S) (Homo sapiens, UniProt P00533, C797S/L858R); test: Inhibitory activity against EGFR (L858R/C797S) kinase; details: Test Example 1, Table 5; ATP 4 μM, 90 minutes
T4 construct: purchased SignalChem
T4 sequence (P00533 25-1210 C797S/L858R): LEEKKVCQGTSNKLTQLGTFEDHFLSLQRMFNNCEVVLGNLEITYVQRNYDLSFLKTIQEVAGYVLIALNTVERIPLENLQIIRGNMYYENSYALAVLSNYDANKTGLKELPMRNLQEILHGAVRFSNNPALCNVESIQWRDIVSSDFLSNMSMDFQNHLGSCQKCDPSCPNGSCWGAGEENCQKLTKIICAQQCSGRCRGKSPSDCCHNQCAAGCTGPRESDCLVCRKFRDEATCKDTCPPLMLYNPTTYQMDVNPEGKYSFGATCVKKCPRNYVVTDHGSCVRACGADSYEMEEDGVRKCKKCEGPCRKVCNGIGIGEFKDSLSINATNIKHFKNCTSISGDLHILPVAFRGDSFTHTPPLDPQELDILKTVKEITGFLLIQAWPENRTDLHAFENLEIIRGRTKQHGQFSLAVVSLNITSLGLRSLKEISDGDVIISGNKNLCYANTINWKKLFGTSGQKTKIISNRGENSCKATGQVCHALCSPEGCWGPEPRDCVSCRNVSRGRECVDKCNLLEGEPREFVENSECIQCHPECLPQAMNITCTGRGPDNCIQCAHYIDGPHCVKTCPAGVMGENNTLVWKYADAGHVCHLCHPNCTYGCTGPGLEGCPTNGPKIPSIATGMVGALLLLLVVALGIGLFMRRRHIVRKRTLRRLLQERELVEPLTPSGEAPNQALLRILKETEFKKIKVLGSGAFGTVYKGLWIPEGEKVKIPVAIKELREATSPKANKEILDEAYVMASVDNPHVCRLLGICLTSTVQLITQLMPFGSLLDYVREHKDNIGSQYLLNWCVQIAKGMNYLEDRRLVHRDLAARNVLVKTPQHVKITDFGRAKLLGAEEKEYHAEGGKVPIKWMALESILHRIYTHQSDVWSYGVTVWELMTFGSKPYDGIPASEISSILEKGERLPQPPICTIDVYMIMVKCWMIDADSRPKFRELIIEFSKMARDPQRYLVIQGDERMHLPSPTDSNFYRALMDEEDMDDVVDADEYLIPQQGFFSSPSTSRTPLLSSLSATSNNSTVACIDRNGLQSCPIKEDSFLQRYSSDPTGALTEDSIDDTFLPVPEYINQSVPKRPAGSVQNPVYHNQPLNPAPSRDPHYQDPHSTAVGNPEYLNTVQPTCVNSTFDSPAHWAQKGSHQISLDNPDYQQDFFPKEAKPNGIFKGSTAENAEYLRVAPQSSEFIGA
Method: 4) Measurement of inhibitory activity against EGFR (L858R/C797S) kinase
The compounds of the present invention were measured for their inhibitory activity aeainst EGFR (L858R/C797S) kinase activity.
The materials, measurement procedures and data analysis method used in this test are stibstantially the same as those shown in the section “Measurement of inhibitory activity against EGFR (d746-750/C797S) kinase.” However, among the materials, the kinase protein used was a purified recombinant human EGFR (C797S/L858R) protein purchased from SignalChem. In the measurement procedures, the final concentration of ATP was set to 4 μM, and the incubation time for kinase reaction was set to 90 minutes. Finally, data analysis was conducted determine the IC50 value (nM) of each compound against EGFR (L858R/C797S).
In accordance with the same procedures as shown in 4) in Test Example 1, the compounds of the present invention were measured for their inhibitor activity against. EGFR (L858R/C797S) kinase activity.

[5] = target: T5, human EGFR (L858R/T790M/C797S) (Homo sapiens, UniProt P00533, C797S/L858R/T790M); test: Inhibitory activity against EGFR (L858R/T790M/C797S) kinase; details: Test Example 3, Table 9; same procedures as 2) in Test Example 1
T5 construct: made in house; host or cells: Sf9 insect cells, baculovirus
T5 sequence (P00533 with tags, fused parts or gaps T790M/C797S/L858R): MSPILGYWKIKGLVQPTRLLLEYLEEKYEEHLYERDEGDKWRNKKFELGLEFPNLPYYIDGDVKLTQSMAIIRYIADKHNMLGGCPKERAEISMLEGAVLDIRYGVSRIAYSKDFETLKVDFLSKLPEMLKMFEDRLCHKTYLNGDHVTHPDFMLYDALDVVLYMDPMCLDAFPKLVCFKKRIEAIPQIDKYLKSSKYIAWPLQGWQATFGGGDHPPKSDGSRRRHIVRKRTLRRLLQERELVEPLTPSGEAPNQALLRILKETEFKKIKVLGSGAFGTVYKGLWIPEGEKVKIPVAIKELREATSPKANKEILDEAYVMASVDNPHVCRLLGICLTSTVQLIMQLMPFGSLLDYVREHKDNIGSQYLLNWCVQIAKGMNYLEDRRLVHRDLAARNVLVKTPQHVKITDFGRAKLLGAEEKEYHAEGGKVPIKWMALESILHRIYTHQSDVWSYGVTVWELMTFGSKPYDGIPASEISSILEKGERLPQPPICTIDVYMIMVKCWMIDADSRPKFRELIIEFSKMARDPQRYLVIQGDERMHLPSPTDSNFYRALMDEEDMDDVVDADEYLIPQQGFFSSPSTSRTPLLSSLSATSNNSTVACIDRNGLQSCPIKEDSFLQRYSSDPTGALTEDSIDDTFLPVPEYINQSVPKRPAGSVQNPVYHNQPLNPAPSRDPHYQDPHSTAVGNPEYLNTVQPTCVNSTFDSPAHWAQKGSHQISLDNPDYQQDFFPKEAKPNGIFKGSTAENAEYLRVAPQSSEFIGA
Method: 2) Measurement of inhibitory activity against EGFR (L858R/T790M/C797S) kinase
The compounds of the presein invention were measured for their inhibitory activity against EGFR (L858R/T790M/C797S) kinase activity.
The materials, measurement procedures and data analysis method used in this test are substantially the same as those shown in the section “Measurement of inhibitory activity against EGFR (d746-750/T790M/C797S) kinase.” However, among the materials, the kinase protein (SEQ ID NO: 2) used was prepared as follows: the cytoplasmic domain of human EGFR (L858R/T790M/C797S) fused at the amino terminal end with a GST tag was expressed in insect cells (Sf9) by the baculovirus expression system and then purified on a glutathione sepharose column. In the measurement procedures, the final concentration of ATP was set to 0.5 μM. Finally, data analysis was conducted to determine the IC50 value (nM) of each compound against EGFR (L858R/T790M/C797S).
In accordance with the same procedures as shown in 2) in Test Example 1, the compounds of the present invention were measured for their inhibitory activity against EGFR (L858R/T790M/C797S) kinase activity.

[6] = Test Example 1, Table 2, ATP 6 μM, 25° C., 120 minutes
[7] = Test Example 1, Table 4, ATP 14 μM, 60 minutes
[8] = Test Example 1, Table 6, ATP 1.5 μM

T1 sequence (P00533 with tags, fused parts or gaps DEL746-750/T790M/C797S): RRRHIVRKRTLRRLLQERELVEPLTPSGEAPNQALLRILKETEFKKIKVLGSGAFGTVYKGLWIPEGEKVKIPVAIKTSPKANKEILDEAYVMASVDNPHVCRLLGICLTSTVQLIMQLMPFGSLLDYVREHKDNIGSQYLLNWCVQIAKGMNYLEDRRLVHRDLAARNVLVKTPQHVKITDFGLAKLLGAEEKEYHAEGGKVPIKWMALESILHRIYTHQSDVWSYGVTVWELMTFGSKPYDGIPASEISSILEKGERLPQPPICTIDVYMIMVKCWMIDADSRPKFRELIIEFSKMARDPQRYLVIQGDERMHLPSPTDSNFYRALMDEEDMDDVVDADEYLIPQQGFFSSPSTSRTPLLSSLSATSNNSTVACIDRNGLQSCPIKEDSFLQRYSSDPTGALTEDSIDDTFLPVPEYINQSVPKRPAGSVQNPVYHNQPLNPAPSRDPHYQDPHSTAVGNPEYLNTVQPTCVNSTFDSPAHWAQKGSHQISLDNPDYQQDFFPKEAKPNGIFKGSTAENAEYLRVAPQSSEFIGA

IC50 [1, 6] [nM] | IC50 [2, 7] [nM] | IC50 [3, 8] [nM] | IC50 [4] [nM] | IC50 ([1]; Test Example 3, Table 8; same procedures as 1) in Test Example 1) [nM] | IC50 ([2]; Test Example 3, Table 10; same procedures as 3) in Test Example 1) [nM] | IC50 [5] [nM] | IC50 ([3]; Test Example 3, Table 12; same procedures as 5) in Test Example 1) [nM] | SMILES
0.32 | 1.2 | 4 | 2.8 |  |  |  |  | C#Cc1c(-c2cnc3ccccc3c2)c2c(N)ncnc2n1C12CCC(N3CCN(C)C(=O)C3)(CC1)C2 [Example 5, 4-(4-(4-Amino-6-ethynyl-5-(quinolin-3-yl)-7H-pyrrolo[2,3-d]pyrimidin-7-yl)bicyclo-[2.2.1]heptan-1-yl)-1-methylpiperazin-2-one]
0.8 | 2.3 | 2.5 | 2.9 |  |  |  |  | C#Cc1c(-c2cnc3ccccc3c2)c2c(N)ncnc2n1C12CCC(O)(CC1)CC2 [Example 7, 4-(4-Amino-6-ethynyl-5-(quinoiln-3-yl)-7H-pyrrolo[2,3-d]pyrimidin-7-yl)bicyclo-[2.2.2]octan-1-ol]
< 0.3 | 0.73 | 3.2 | 1.4 |  |  |  |  | C#Cc1c(-c2cnc3ccccc3c2)c2c(N)ncnc2n1C12CCC(NCc3cccnc3)(CC1)CC2 [Example 8, 6-Ethynyl-7-(4-((pyridin-3-ylmethyl)amino)bicyclo[2.2.2]octan-1-yl)-5-(quinolin-3-yl) -7H-pyrrolo[2,3-d]pyrimidine-4-amine]
< 0.3 | 0.78 | 1.7 | 0.98 |  |  |  |  | C#Cc1c(-c2cnc3ccccc3c2)c2c(N)ncnc2n1C12CCC(NC(=O)n3cccn3)(CC1)C2 [Example 21, N-(4-(4-Amino-6-ethynyl-5-(quinolin-3-yl)-7H-pyrrolo[2,3-d]pyrimidin-7-yl)bicyclo-[2.2.1]heptan-1-yl)-1H-pyrazole-1-carboxamide]
< 0.3 | 0.59 | 1 | 0.78 |  |  |  |  | C#Cc1c(-c2cnc3ccccc3c2)c2c(N)ncnc2n1C12CCC(NC(=O)c3cnc(N(C)C)cn3)(CC1)C2 [Example 32, N-(4-(4-Amino-6-ethynyl-5-(quinolin-3-yl)-7H-pyrrolo[2,3-d]pyrimidin-7-yl)bicyclo-[2.2.1]heptan-1-yl)-5-(dimethylamino)pyrazine-2-carboxamide]
< 0.3 | 1.9 | 1.9 | 2.3 |  |  |  |  | CC#Cc1c(-c2cnc3ccccc3c2)c2c(N)ncnc2n1C12CCC(NC(=O)c3ccnn3C)(CC1)C2 [Example 33, N-(4-(4-Amino-6-(propyn-1-yl)-5-(quinolin-3-yl)-7H-pyrrolo[2,3-d]pyrimidin-7-yl) -bicyclo[2.2.1]heptan-1-yl)-1-methyl-1H-pyrazole-5-carboxamide]
< 0.3 | 2.6 | 5 | 4 |  |  |  |  | C#Cc1c(-c2cnc3ccccc3c2)c2c(N)ncnc2n1C12CCC(CN(C)C)(CC1)C2 [Example 40, 7-(4-((Dimethylamino)methyl)bicyclo[2.2.1]heptan-1-yl)-6-ethynyl-5-(quinolin-3-yl) -7H-pyrrolo[2,3-d]pyrimidine-4-amine]
< 0.3 | 1.5 | 6.3 | 2.8 |  |  |  |  | C#Cc1c(-c2cnc3ccccc3c2)c2c(N)ncnc2n1C12CCC(CNCCF)(CC1)C2 [Example 54, 6-Ethynyl-7-(4-(((2-fluoroethyl)amino)methyl)bicyclo[2.2.1]heptan-1-yl)-5-(quinolin-3-yl)-7H-pyrrolo[2,3-d]pyrimidine-4-amine]
< 0.3 | 0.86 | 1.2 | 1.2 |  |  |  |  | C#Cc1c(-c2cnc3ccccc3c2)c2c(N)ncnc2n1C12CCC(NC(=O)CN(C)C)(CC1)CC2 [Example 55]
< 0.3 | 0.84 | 0.94 | 0.9 |  |  |  |  | C#Cc1c(-c2cnc3ccccc3c2)c2c(N)ncnc2n1C12CCC(NC(=S)N3CC4(CN(C)C4)C3)(CC1)CC2 [Example 56]
< 0.3 | 2.5 | 5.9 | 4.4 |  |  |  |  | C#Cc1c(-c2cnc3ccccc3c2)c2c(N)ncnc2n1C12CCC(N(C)C(=O)c3cnc(C)cn3)(CC1)C2 [Example 57]
 |  |  |  | < 0.3 | 0.34 | < 0.3 | 1.6 | C#Cc1c(-c2cnc3ccccc3c2)c2c(N)ncnc2n1C12CCC(NC(=O)[C@@H]3CNCCO3)(CC1)C2 [Example 62, (S)-N-(4-(4-Amino-6-ethynyl-5-(quinolin-3-yl)-7H-pyrrolo[2,3-d]pyrimidin-7-yl) -bicyclo[2.2.1]heptan-1-yl)morpholine-2-carboxamide]
